Patent US20180318415A1, “NOVEL ADJUVANT FORMULATIONS” (GLAXOSMITHKLINE BIOLOGICALS, SA, priority 2015, published 2018)

Tested on: rabbits
Assay: Rabbit pyrogen test (USP<151>)
Conditions: CRX-601 per kg animal body weight

CCCCCCCCCCC[C@H](CC(=O)NC1C(OC(=O)C[C@@H](CCCCCCCCCCC)OCCCCCCCCCC)[C@H](OP(=O)(O)O)C(CO)O[C@H]1OC[C@H](NC(=O)C[C@@H](CCCCCCCCCCC)OCCCCCCCCCC)C(=O)O)OCCCCCCCCCC (stereo partly shown) [free CRX-601]
Max non-pyrogenic dose: 0.001 to 0.002 µg/kg
